Test results from publication PMC10539439 (Pharmacological Reports, 2023).
“And” between values parts separate entries of the source, which are not always exact repeats. Equal values may be shown once.

Assays:
α2-adrenoceptor = biological target: T1, α2-adrenoceptor (Rattus norvegicus, UniProt P22909); test: Competitive radioligand-binding assay, [3H]clonidine; settings: for CPM: ADRA2, experiments 1-3, duplicates; for Affinity towards α2-adrenoceptors: summary table
T1 sequence (P22909 1-465): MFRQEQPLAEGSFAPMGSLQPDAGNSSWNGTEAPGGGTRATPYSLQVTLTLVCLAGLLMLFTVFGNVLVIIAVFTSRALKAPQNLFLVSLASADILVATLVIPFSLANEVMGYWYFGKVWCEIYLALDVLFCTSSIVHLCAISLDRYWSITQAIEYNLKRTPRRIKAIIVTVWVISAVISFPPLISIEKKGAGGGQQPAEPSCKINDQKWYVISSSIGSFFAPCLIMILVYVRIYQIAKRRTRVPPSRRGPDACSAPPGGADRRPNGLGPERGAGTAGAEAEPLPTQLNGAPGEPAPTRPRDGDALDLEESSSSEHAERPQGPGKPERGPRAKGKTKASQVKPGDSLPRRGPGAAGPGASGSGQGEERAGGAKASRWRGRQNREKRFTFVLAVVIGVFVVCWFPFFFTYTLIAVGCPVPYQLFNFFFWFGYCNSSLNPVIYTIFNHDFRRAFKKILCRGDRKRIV
Method: 10 mM stock solutions of test compounds were prepared in DMSO. Serial dilutions of compounds were prepared in 96-well microplate in assay buffers using an automated pipetting system epMotion 5070 (Eppendorf, Poland). Each compound was tested in 6 concentrations of 1.0E-05 to 1.0E-10 M (final concentration).
Affinity towards α1- and α2-adrenoceptors was evaluated using the competitive radioligand-binding assay. Experiments were conducted in the rat cerebral cortex. Radioligand [3H]prazosin (84,2 Ci/mmol, α1-adrenoceptor, PerkinElmer, Poland, NET823001MC) and [3H]clonidine (70.5 Ci/mmol, α2-adrenoceptor, PerkinElmer, Poland, NET613250UC) were used. The membrane preparation and the assay procedure were carried out accordingly as previously published. Radioactivity was counted on the MicroBeta2 scintillation counter (PerkinElmer, Poland). Data were fitted to a one-site curve-fitting equation with Prism 8 (GraphPad Software, USA), and Ki values were estimated from the Cheng–Prusoff equation.

[1] = Blood pressure of anaesthetized normotensive rats; assay type: in vivo, rat
Method: Eighteen normotensive rats were anaesthetized with thiopental (70 mg/kg) by ip injection. The left carotid artery was cannulated with tubing filled with heparin solution in saline to facilitate pressure measurements using Apparatus PowerLab 4/35 (ADInstruments, Australia). Blood pressure was measured: before ip administration of 4-OH-Guanabenz at the doses of 2 or 5 or 10 mg/kg b.w. or water – time 0 min (control pressure) and continuously during the next 60 min.

[2] = 2 mg/kg, time 0, individual rats 1-6
[3] = 2 mg/kg, time 5, individual rats 1-6
[4] = 2 mg/kg, time 10, individual rats 1-6
[5] = 2 mg/kg, time 15, individual rats 1-6
[6] = 2 mg/kg, time 20, individual rats 1-6
[7] = 2 mg/kg, time 30, individual rats 1-6
[8] = 2 mg/kg, time 40, individual rats 1-6
[9] = 2 mg/kg, time 50, individual rats 1-6
[10] = 2 mg/kg, time 60, individual rats 1-6
[11] = 5 mg/kg, time 0, individual rats 1-6
[12] = 5 mg/kg, time 5, individual rats 1-6
[13] = 5 mg/kg, time 10, individual rats 1-6
[14] = 5 mg/kg, time 15, individual rats 1-6
[15] = 5 mg/kg, time 20, individual rats 1-6
[16] = 5 mg/kg, time 30, individual rats 1-6
[17] = 5 mg/kg, time 40, individual rats 1-6
[18] = 5 mg/kg, time 50, individual rats 1-6
[19] = 5 mg/kg, time 60, individual rats 1-6
[20] = 10 mg/kg, time not printed (1st of 9 lines), individual rats 1-6
[21] = 10 mg/kg, time not printed (2nd of 9 lines), individual rats 1-6
[22] = 10 mg/kg, time not printed (3rd of 9 lines), individual rats 1-6
[23] = 10 mg/kg, time not printed (4th of 9 lines), individual rats 1-6
[24] = 10 mg/kg, time not printed (5th of 9 lines), individual rats 1-6
[25] = 10 mg/kg, time not printed (6th of 9 lines), individual rats 1-6
[26] = 10 mg/kg, time not printed (7th of 9 lines), individual rats 1-6
[27] = 10 mg/kg, time not printed (8th of 9 lines), individual rats 1-6
[28] = 10 mg/kg, time not printed (9th of 9 lines), individual rats 1-6

## Cl.N=C(N)NN=Cc1c(Cl)cc(O)cc1Cl [4-OH-Guanabenz, 2-[(2,6-Dichloro-4-hydroxyphenyl)methylene]hydrazinecarboximidamide Hydrochloride]
α2-adrenoceptor
  affinity toward α2-adrenoreceptor (in words): high affinity
  Affinity towards α2-adrenoceptors: +
α2-adrenoceptor; log of molar concentration -5
  CPM: 78 CPM and 116 CPM and 96 CPM and 117 CPM and 113 CPM and 111 CPM
α2-adrenoceptor; log of molar concentration -6
  CPM: 132 CPM and 157 CPM and 112 CPM and 131 CPM and 141 CPM
α2-adrenoceptor; log of molar concentration -7
  CPM: 198 CPM and 156 CPM and 131 CPM and 190 CPM and 205 CPM
α2-adrenoceptor; log of molar concentration -8
  CPM: 314 CPM and 316 CPM and 394 CPM and 302 CPM and 300 CPM
α2-adrenoceptor; log of molar concentration -9
  CPM: 420 CPM and 340 CPM and 383 CPM and 296 CPM and 320 CPM and 437 CPM
α2-adrenoceptor; log of molar concentration -10
  CPM: 404 CPM and 380 CPM and 358 CPM and 403 CPM and 400 CPM and 370 CPM
[1]; thiopental-anaesthetized rats, 10 mg/kg b.w., 10th minute after administration
  effect on diastolic pressure (in words): short-term increase
[1]; thiopental-anaesthetized rats, single dose 2 or 5 mg/kg b.w., vs water
  effect on blood pressure (in words): not significantly different

## N=C(N)N/N=C/c1c(Cl)cc(O)cc1Cl [4HOGuanabenz]
[1]; [2]
  diastolic pressure: 104 mmHg and 92 mmHg and 99 mmHg and 108 mmHg and 82 mmHg and 91 mmHg
  systolic pressure: 135 mmHg and 127 mmHg and 134 mmHg and 140 mmHg and 114 mmHg and 116 mmHg
[1]; [3]
  diastolic pressure: 110 mmHg and 93 mmHg (2×) and 102 mmHg and 104 mmHg and 89 mmHg
  systolic pressure: 140 mmHg and 125 mmHg and 136 mmHg and 137 mmHg and 119 mmHg and 116 mmHg
[1]; [4]
  diastolic pressure: 105 mmHg and 88 mmHg (2×) and 96 mmHg and 99 mmHg and 92 mmHg
  systolic pressure: 134 mmHg and 120 mmHg and 130 mmHg (2×) and 119 mmHg and 116 mmHg
[1]; [5]
  diastolic pressure: 103 mmHg and 86 mmHg (2×) and 94 mmHg and 99 mmHg and 89 mmHg
  systolic pressure: 133 mmHg and 117 mmHg and 128 mmHg and 129 mmHg and 115 mmHg and 114 mmHg
[1]; [6]
  diastolic pressure: 99 mmHg and 84 mmHg and 92 mmHg and 96 mmHg and 86 mmHg and 85 mmHg
  systolic pressure: 128 mmHg and 115 mmHg and 124 mmHg and 125 mmHg and 112 mmHg and 111 mmHg
[1]; [7]
  diastolic pressure: 96 mmHg and 85 mmHg and 91 mmHg and 94 mmHg and 82 mmHg and 86 mmHg
  systolic pressure: 125 mmHg and 111 mmHg and 120 mmHg and 121 mmHg and 106 mmHg and 107 mmHg
[1]; [8]
  diastolic pressure: 101 mmHg and 86 mmHg and 90 mmHg and 93 mmHg and 79 mmHg and 85 mmHg
  systolic pressure: 131 mmHg and 116 mmHg and 119 mmHg (2×) and 104 mmHg and 105 mmHg
[1]; [9]
  diastolic pressure: 99 mmHg and 83 mmHg and 90 mmHg and 95 mmHg and 76 mmHg and 85 mmHg
  systolic pressure: 129 mmHg and 110 mmHg and 116 mmHg and 124 mmHg and 101 mmHg and 104 mmHg
[1]; [10]
  diastolic pressure: 96 mmHg (2×) and 83 mmHg and 90 mmHg and 73 mmHg and 85 mmHg
  systolic pressure: 125 mmHg and 111 mmHg and 118 mmHg and 122 mmHg and 98 mmHg and 103 mmHg
[1]; [11]
  diastolic pressure: 73 mmHg and 104 mmHg and 91 mmHg and 101 mmHg and 95 mmHg and 99 mmHg
  systolic pressure: 115 mmHg and 133 mmHg and 114 mmHg and 135 mmHg and 122 mmHg and 131 mmHg
[1]; [12]
  diastolic pressure: 71 mmHg and 106 mmHg and 112 mmHg and 113 mmHg and 100 mmHg and 108 mmHg
  systolic pressure: 105 mmHg and 136 mmHg and 150 mmHg and 144 mmHg and 133 mmHg and 145 mmHg
[1]; [13]
  diastolic pressure: 63 mmHg and 92 mmHg and 98 mmHg (2×) and 101 mmHg and 90 mmHg
  systolic pressure: 97 mmHg and 121 mmHg and 129 mmHg and 132 mmHg and 120 mmHg and 130 mmHg
[1]; [14]
  diastolic pressure: 62 mmHg and 89 mmHg and 87 mmHg and 95 mmHg and 83 mmHg and 91 mmHg
  systolic pressure: 94 mmHg and 117 mmHg and 115 mmHg and 125 mmHg and 110 mmHg and 121 mmHg
[1]; [15]
  diastolic pressure: 61 mmHg and 89 mmHg and 85 mmHg and 95 mmHg and 79 mmHg and 91 mmHg
  systolic pressure: 93 mmHg and 115 mmHg and 109 mmHg and 124 mmHg and 105 mmHg and 117 mmHg
[1]; [16]
  diastolic pressure: 63 mmHg and 90 mmHg and 86 mmHg and 93 mmHg (2×) and 77 mmHg
  systolic pressure: 92 mmHg and 117 mmHg and 108 mmHg and 122 mmHg and 103 mmHg and 121 mmHg
[1]; [17]
  diastolic pressure: 64 mmHg and 87 mmHg and 89 mmHg and 98 mmHg and 78 mmHg and 94 mmHg
  systolic pressure: 92 mmHg and 111 mmHg and 109 mmHg and 127 mmHg and 107 mmHg and 119 mmHg
[1]; [18]
  diastolic pressure: 65 mmHg and 87 mmHg and 89 mmHg and 91 mmHg and 78 mmHg and 96 mmHg
  systolic pressure: 91 mmHg and 112 mmHg and 110 mmHg and 115 mmHg and 102 mmHg and 124 mmHg
[1]; [19]
  diastolic pressure: 67 mmHg and 88 mmHg and 84 mmHg and 91 mmHg and 83 mmHg and 93 mmHg
  systolic pressure: 92 mmHg and 112 mmHg and 104 mmHg and 113 mmHg and 111 mmHg and 118 mmHg
[1]; [20]
  diastolic pressure: 75 mmHg and 81 mmHg and 116 mmHg and 86 mmHg and 114 mmHg and 107 mmHg
  systolic pressure: 113 mmHg and 125 mmHg and 158 mmHg and 100 mmHg and 145 mmHg and 140 mmHg
[1]; [21]
  diastolic pressure: 95 mmHg and 98 mmHg and 122 mmHg and 99 mmHg and 117 mmHg and 109 mmHg
  systolic pressure: 125 mmHg and 126 mmHg and 177 mmHg and 111 mmHg and 164 mmHg and 139 mmHg
[1]; [22]
  diastolic pressure: 89 mmHg and 95 mmHg and 109 mmHg and 87 mmHg and 111 mmHg and 107 mmHg
  systolic pressure: 115 mmHg and 124 mmHg and 150 mmHg and 101 mmHg and 151 mmHg and 134 mmHg
[1]; [23]
  diastolic pressure: 86 mmHg and 95 mmHg and 106 mmHg and 84 mmHg and 107 mmHg and 103 mmHg
  systolic pressure: 112 mmHg and 127 mmHg and 135 mmHg and 96 mmHg and 142 mmHg and 131 mmHg
[1]; [24]
  diastolic pressure: 84 mmHg (2×) and 92 mmHg and 108 mmHg and 103 mmHg (2×)
  systolic pressure: 110 mmHg and 121 mmHg and 133 mmHg and 95 mmHg and 135 mmHg and 129 mmHg
[1]; [25]
  diastolic pressure: 83 mmHg and 91 mmHg and 105 mmHg and 81 mmHg and 101 mmHg (2×)
  systolic pressure: 108 mmHg and 123 mmHg and 135 mmHg and 91 mmHg and 132 mmHg and 127 mmHg
[1]; [26]
  diastolic pressure: 82 mmHg and 88 mmHg and 96 mmHg and 80 mmHg and 99 mmHg and 101 mmHg
  systolic pressure: 107 mmHg and 116 mmHg and 126 mmHg and 90 mmHg and 130 mmHg and 124 mmHg
[1]; [27]
  diastolic pressure: 84 mmHg and 90 mmHg and 106 mmHg and 78 mmHg and 98 mmHg and 97 mmHg
  systolic pressure: 107 mmHg and 121 mmHg and 134 mmHg and 87 mmHg and 129 mmHg and 122 mmHg
[1]; [28]
  diastolic pressure: 83 mmHg and 92 mmHg and 99 mmHg and 78 mmHg and 101 mmHg and 98 mmHg
  systolic pressure: 107 mmHg and 122 mmHg (2×) and 130 mmHg and 86 mmHg and 131 mmHg

## N=C(N)N/N=C/c1c(Cl)cccc1Cl [Guanabenz]
α2-adrenoceptor; log of molar concentration -6
  CPM: 89 CPM and 117 CPM and 99 CPM and 116 CPM and 125 CPM and 115 CPM
α2-adrenoceptor; log of molar concentration -7
  CPM: 120 CPM and 135 CPM and 148 CPM and 196 CPM and 133 CPM
α2-adrenoceptor; log of molar concentration -8
  CPM: 152 CPM and 165 CPM and 205 CPM and 265 CPM and 170 CPM
α2-adrenoceptor; log of molar concentration -10
  CPM: 320 CPM and 325 CPM and 437 CPM and 458 CPM and 265 CPM and 270 CPM
α2-adrenoceptor
  Affinity towards α2-adrenoceptors: +
